target: T1, pY705-STAT3 in PBMC (Homo sapiens, UniProt P40763); assay: MSD-pSTAT-PBMC Assay (pSTAT3, IL-6 stimulated); type: cell-based; details: PBMC, compound 3 hrs, then 10 ng/mL IL-6 for 10 min; Table 115; read-out: STAT3
T1 construct: Cryopreserved Peripheral Blood Mononuclear Cells (PBMC) are from AllCells; host or cells: cryopreserved PBMC
Summary of the method: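 PBMC (human, cryopreserved, overnight recovery) + cpd 3 hrs → IL-6 10 ng/mL (STAT3) or IL-4 1 ng/mL (STAT6) ×10 min → lysis with protease/phosphatase inhibitors → MSD capture/phospho detection. IC50, variable slope, DMSO-normalized.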

T1 sequence (P40763 whole entry): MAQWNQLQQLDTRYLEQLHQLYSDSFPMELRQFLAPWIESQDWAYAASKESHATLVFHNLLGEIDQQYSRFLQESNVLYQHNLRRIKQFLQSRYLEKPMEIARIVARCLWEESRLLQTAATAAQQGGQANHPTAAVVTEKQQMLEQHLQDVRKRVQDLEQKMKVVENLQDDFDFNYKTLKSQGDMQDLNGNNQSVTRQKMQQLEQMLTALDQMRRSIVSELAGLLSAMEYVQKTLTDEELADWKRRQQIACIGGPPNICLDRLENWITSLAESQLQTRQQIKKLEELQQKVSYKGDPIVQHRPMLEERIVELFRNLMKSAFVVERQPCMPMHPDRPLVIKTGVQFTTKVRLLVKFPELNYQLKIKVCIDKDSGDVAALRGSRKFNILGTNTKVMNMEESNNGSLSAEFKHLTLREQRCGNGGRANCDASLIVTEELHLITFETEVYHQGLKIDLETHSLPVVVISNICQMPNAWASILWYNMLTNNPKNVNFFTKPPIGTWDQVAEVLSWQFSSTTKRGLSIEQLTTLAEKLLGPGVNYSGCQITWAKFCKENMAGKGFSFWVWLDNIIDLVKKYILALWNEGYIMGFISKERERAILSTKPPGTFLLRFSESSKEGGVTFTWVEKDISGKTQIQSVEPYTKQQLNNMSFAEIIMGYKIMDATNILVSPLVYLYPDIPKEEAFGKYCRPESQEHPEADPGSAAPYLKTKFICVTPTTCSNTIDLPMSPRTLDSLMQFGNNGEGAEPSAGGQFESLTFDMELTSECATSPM

SMILES	IC50
CCCOC(=O)C(C)CNP(=O)(Cc1ccc2sc(C(=O)N[C@H]3CCC[C@H]4CC[C@@H](C(=O)N5CC(c6cccnc6)C5)N4C3=O)cc2c1)Oc1ccccc1 (stereo partly drawn) [Compound 294, propyl 2-methyl-3-((((2-(((3S,6S,9aS)-5-oxo-3-(3-(pyridin-3-yl)azetidine-1-carbonyl)octahydro-1H-pyrrolo[1,2-a]azepin-6-yl)carbamoyl)benzo [b]thiophen-5-yl)methyl)(phenoxy)phosphoryl)amino) propanoate]	1000 to 3000 nM
CCCOC(=O)[C@H](C)N[P@](=O)(Oc1ccccc1)[C@@H](F)c1ccc2sc(C(=O)N[C@H]3C[C@@H](C)C[C@H]4CC[C@@H](C(=O)N5CC(c6cnccc6OC)C5)N4C3=O)cc2c1 (single isomer, unassigned) [Compound 1058]	< 100 nM
CCCOC(=O)[C@H](C)NP(=O)(Oc1ccccc1)[C@@H](F)c1ccc2sc(C(=O)N[C@H]3CCC[C@H]4CC[C@@H](C(=O)N5CC(c6cnccc6N6CC(OC)C6)C5)N4C3=O)cc2c1 (stereo partly drawn) [Compound 1062, propyl (((R)-fluoro(2-(((3S,6S,9aS)-3-(3-(4-(3-methoxyazetidin-1-yl)pyridin-3-yl)azetidine-1-carbonyl)-5-oxooctahydro-1H-pyrrolo[1,2-a]azepin-6-yl)carbamoyl)benzo [b]thiophen-5-yl)methyl)(phenoxy)phosphoryl)-L-alaninate]	100 to 1000 nM
CCCOC(=O)[C@H](C)NP(=O)(Oc1ccccc1)C(F)c1ccc2sc(C(=O)N[C@H]3CCC[C@H]4CC[C@@H](C(=O)N5CC(c6cncnc6OC)C5)N4C3=O)cc2c1 (stereo partly drawn) [Compound 1042, propyl ((fluoro(2-(((3S,6S,9aS)-3-(3-(4-methoxypyrimidin-5-yl)azetidine-1-carbonyl)-5-oxooctahydro-1H-pyrrolo[1,2-a]azepin-6-yl)carbamoyl)benzo [b]thiophen-5-yl)methyl)(phenoxy)phosphoryl)-L-alaninate]	100 to 1000 nM
CCCOC(=O)[C@H](C)NP(=O)(Oc1ccccc1)[C@H](F)c1ccc2sc(C(=O)N[C@H]3CCC[C@H]4CC[C@@H](C(=O)N5CC(c6cncnc6N6CCOCC6)C5)N4C3=O)cc2c1 (stereo partly drawn) [Compound 1067, propyl (((S)-fluoro(2-(((3S,6S,9aS)-3-(3-(4-morpholinopyrimidin-5-yl)azetidine-1-carbonyl)-5-oxooctahydro-1H-pyrrolo[1,2-a]azepin-6-yl)carbamoyl)benzo [b]thiophen-5-yl)methyl)(phenoxy)phosphoryl)-L-alaninate]	100 to 1000 nM
C[C@H](NP(=O)(Cc1ccc2sc(C(=O)N[C@H]3CCC[C@H]4CC[C@@H](C(=O)N5CC(c6cccnc6)C5)N4C3=O)cc2c1)Oc1ccccc1)C(=O)OCC(C)(C)C (stereo partly drawn) [Compound 256, neopentyl (((2-(((3S,6S,9aS)-5-oxo-3-(3-(pyridin-3-yl)azetidine-1-carbonyl)octahydro-1H-pyrrolo[1,2-a]azepin-6-yl)carbamoyl)benzo [b]thiophen-5-yl)methyl)(phenoxy)phosphoryl)-L-alaninate]	< 100 nM
CCCOC(=O)[C@H](C)NP(=O)(Cc1ccc2sc(C(=O)N[C@H]3CCC[C@H]4CC[C@@H](C(=O)N5CC(c6cccnc6)C5)N4C3=O)cc2c1)Oc1ccccc1 (stereo partly drawn) [Compound 307, propyl (((2-(((3S,6S,9aS)-5-oxo-3-(3-(pyridin-3-yl)azetidine-1-carbonyl)octahydro-1H-pyrrolo[1,2-a]azepin-6-yl)carbamoyl)benzo [b]thiophen-5-yl)methyl)(phenoxy)phosphoryl)-L-alaninate]	> 3000 nM
CCCOC(=O)[C@H](C)NP(=O)(Cc1ccc2sc(C(=O)N[C@H]3CCC[C@H]4CC[C@@H](C(=O)N5CC(c6cncnc6N6CCC6)C5)N4C3=O)cc2c1)Oc1ccccc1 (stereo partly drawn) [Compound 1019, propyl (((2-(((3S,6S,9aS)-3-(3-(4-(azetidin-1-yl)pyrimidin-5-yl)azetidine-1-carbonyl)-5-oxooctahydro-1H-pyrrolo[1,2-a]azepin-6-yl)carbamoyl)benzo [b]thiophen-5-yl)methyl)(phenoxy)phosphoryl)-L-alaninate]	< 100 nM

Reference: US20250215029A1 (Recludix Pharma, Inc., priority 2022, published 2025)
